Data set [1] deals with ovariectomy (OVX) female Sprague-Dawley rats. The experiment in a line: Serum CTX level (bone resorption marker) in ovariectomized rats, ELISA. The class given is in vivo, rat. As to conditions: for CTX: serum, 8 weeks, sham 42.3, OVX control 78.2. How it is done: 11-12 week-old female Sprague-Dawley rats were subjected to sham operation (group 1, n=10) or ovariectomy (OVX) (groups 2-8, n=10 per each group). After a week from the operation, 0.01 mL of a sample per body weight (g) of each rat was administered orally every day for 4 weeks. 17β-Estradiol (E2) was administered to the positive control group and a 1:5:5 mixture of the three compounds tectorigenin, tectoridin and tectorigenin 7-O-xylosylglucoside was administered to the test groups. 4 weeks after the administration, the skin temperature at 2 cm where the tail starts was measured using an infrared thermometer. [table] In order to measure CTX (C-terminal telopeptide of type I collagen), which is a marker related with bone resorption, the same rats as in Example 2 were orally administered with a sample for 8 weeks and then serum was collected. The CTX level in the serum was measured using the rat C-telopeptide of type I collagen ELISA kit (MyBioSource) according to the manufacturer's instructions.
Background: An ELISA detects its analyte on a solid surface through an enzyme-linked reagent.

The test system is the same in data set [2]. Briefly: Tail skin temperature of ovariectomized rats (vasomotor symptoms). The format is in vivo, rat. As to conditions: oral 4 weeks, mixture 5 and 10 mg/kg/day, single compounds 10 mg/kg/day. The source says:
It is known that 75% of […] women experience vasomotor symptoms. Facial flushing (hot flush) is the representative symptom where the skin on face, neck and chest is reddened abruptly, accompanied by unpleasant flushing and sweating. The change in the vasomotor symptoms can be evaluated by measuring the change in skin temperature. In an animal experiment, it can be measure by the skin temperature of the rat tail (Guidelines for evaluation of health functional food, ‘Helpful for health of […] women’, National Institute of Food and Drug Safety Evaluation). 11-12 week-old female Sprague-Dawley rats were subjected to sham operation (group 1, n=10) or ovariectomy (OVX) (groups 2-8, n=10 per each group). After a week from the operation, 0.01 mL of a sample per body weight (g) of each rat was administered orally every day for 4 weeks. 17β-Estradiol (E2) was administered to the positive control group and a 1:5:5 mixture of the three compounds tectorigenin, tectoridin and tectorigenin 7-O-xylosylglucoside was administered to the test groups. 4 weeks after the administration, the skin temperature at 2 cm where the tail starts was measured using an infrared thermometer. [table]

A further data set relates to estrogen receptors. The experiment in a line: ERE (estrogen response element) reporter assay. The class given is cell-based. To be noted: sum of the concentrations of the three compounds 10 ppm; with respect to negative control group (1.0). The method, then:
ERE (estrogen response element) reporter assay was performed to investigate the activity of the three compounds tectorigenin 7-O-xylosylglucoside, tectorigenin and tectoridin for estrogen receptors. Tectorigenin, tectoridin and tectorigenin 7-O-xylosylglucoside were treated at ratios described in Table 1 (the sum of the concentrations of the three compounds was 10 ppm).
Background: Reporter assays use an easily measured gene product as a stand-in for the process of interest.

In the case of `C[C@]12CC[C@@H]3c4ccc(O)cc4CC[C@H]3[C@@H]1CC[C@@H]2O` [17β-estradiol (E2), 17β-Estradiol, reference compound], the CTX in data set [1] (0.5 mg/kg/day oral) amounted to 52.6 ng/mL.
`COc1c(O[C@@H]2O[C@H](CO)[C@@H](O)[C@H](O)[C@H]2O)cc2occ(-c3ccc(O)cc3)c(=O)c2c1O` [Tectoridin, tectoridin] displayed a CTX in data set [1] (10 mg/kg/day oral) of 70.4 ng/mL.
Same read-out and setting: next, `COc1c(O)cc2occ(-c3ccc(O)cc3)c(=O)c2c1O` [Tectorigenin, tectorigenin]: 71.5 ng/mL.
In the case of `COc1c(O[C@@H]2O[C@H](CO[C@@H]3OC[C@@H](O)[C@H](O)[C@H]3O)[C@@H](O)[C@H](O)[C@H]2O)cc2occ(-c3ccc(O)cc3)c(=O)c2c1O` [Tectorigenin 7-O-xylosylglucoside, tectorigenin 7-O-xylosylglucoside], the “Effect on CTX level / bone resorption (in words)” value in data set [1] (oral 8 weeks, compared to the OVX group or to tectorigenin and tectoridin) is listed as “most inhibited bone resorption”. The same compound had a CTX in data set [1] (10 mg/kg/day oral) of 58.4 ng/mL. In data set [2], the “Effect on increase in tail temperature caused by estrogen deficiency (in words)” value is on record as “best effect of suppressing increase in the tail temperature”. The “Activity for estrogen receptors Fold induction” value in the data set with estrogen receptors is 34 fold.

The values are drawn from patent publication US11090324B2, “Composition, for remedying female climacteric syndrome symptoms, comprising tectorigenin 7-O-Xylosylglucoside” (LG Household & Health Care Ltd., priority 2017, dated 2021).
